How the values were obtained:
[1] = biological target: T1, KMT9 (Homo sapiens, UniProt Q9Y5N5); experiment: Microscale thermophoresis (MST) KMT9 binding; settings: microscale thermophoresis, His-tag labelled KMT9 (20 nM); read-out: MST
T1 sequence (Q9Y5N5 1-214): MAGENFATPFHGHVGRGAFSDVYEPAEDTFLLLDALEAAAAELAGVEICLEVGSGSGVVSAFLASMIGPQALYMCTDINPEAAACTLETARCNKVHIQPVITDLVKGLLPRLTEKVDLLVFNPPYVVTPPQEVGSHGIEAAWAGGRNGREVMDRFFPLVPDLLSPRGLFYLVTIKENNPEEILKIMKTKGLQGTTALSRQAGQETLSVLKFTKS
T1 sequence (Q9UI30 1-120 isoform Q9UI30-2 partner): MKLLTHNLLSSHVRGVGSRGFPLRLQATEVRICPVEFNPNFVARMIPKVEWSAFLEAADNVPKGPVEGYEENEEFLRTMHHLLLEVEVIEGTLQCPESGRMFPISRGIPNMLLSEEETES
Outline: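 Kd from microscale thermophoresis: compound series against 20 nM His-KMT9 labelled via RED-Tris-NTA, buffer 25 mM HEPES (pH 7.5)/100 mM NaCl/1 mM DTT/0.05% Tween, 40% MST power, 100% LED. Reported as classes: A ≤10 nM, B >10–100 nM, C >100–1000 nM, D >1000 nM.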

[2] = biological target: T1, KMT9; experiment: KMT9 thermal shift assay (SyproOrange); format: binding; settings: ΔTm; 500 µM compound, 2 μM KMT9, 5X SO; read-out: Thermal shift
Outline: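 ΔTm versus DMSO-only control is reported in bins (>20 K, 15–20 K, 10–15 K, ≤10 K), using Tm from Boltzmann sigmoidal fits of SyproOrange melt curves. KMT9 with compound in pH 8.5 BTP buffer containing MgCl2 and DTT was preincubated at 25° C, then ramped 1° C per 15 s up to 95° C.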

[3] = biological target: T1, KMT9; experiment: KMT9 methyltransferase inhibition assay, 3H-SAM scintillation (entries 1-154); format: biochemical; settings: entries 1-154: 3H-SAM assay, 25 nM KMT9, 5 μM ETF1
Outline: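 Tritium transfer from SAM (0.3 μM 3H-SAM, 0.7 μM unlabelled, final) to 5 μM ETF1 fragment by 25 nM KMT9 was measured after 2 h at 30° C, pH 8.5. Precipitated peptide was collected on filters and scintillation counted; IC50 came from a four-parameter fit of inhibition normalised to controls.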

| SMILES | Kd [1] [nM] | ΔTm at 500 µM [2] [°C] | IC50 [3] [nM] |
| --- | --- | --- | --- |
| CNc1ncnc2c1c(C)cn2[C@@H]1O[C@H](CNCCCNCCc2ccccc2)[C@@H](O)[C@H]1O [311 (210), (2R,3R,45,5R)-2-(5-methyl-4-(methylamino)-7//-pyrrolo[2,3-a]pyrimidin-7-yl)-5-(((3-(phenethylamino)propyl)amino)methyl)tetrahydrofuran-3,4-diol] | > 1000 | ≤ 10 | > 10000 |
| Nc1ncnc2c1c(Br)cn2[C@@H]1C[C@H](CNC[C@@H]2CCCNC2)[C@@H](O)[C@H]1O [456 (328), (1R,2S,3R,5R)-3-(4-Amino-5-bromo-7H-pyrrolo[2,3-d]pyrimidin-7-yl)-5-(((((R)-piperidin-3-yl)methyl)amino)methyl) cyclopentane-1,2-diol] | > 1000 | 10 to 15 | > 10000 |
| CNc1ncnc2c1ccn2[C@@H]1C[C@H](COCCNCCc2ccccc2)[C@@H](O)[C@H]1O [419 (290), (1R,2S,3R,5R)-3-[4-(Methylamino)pyrrolo[2,3-d]pyrimidin-7-yl]-5-({2-[(2-phenylethyl)amino]ethoxy}methyl) cyclopentane-1,2-diol] | > 1000 | ≤ 10 | > 10000 |
| CNc1ncnc2c1ccn2[C@@H]1C[C@H](C[S+]([O-])CCCNCCc2ccccc2)[C@@H](O)[C@H]1O (stereo partly drawn) [428 (300), (1R,2S,3R,5S)-3-(4-(Methylamino)-7H-pyrrolo[2,3-d]pyrimidin-7-yl)-5-(((3-(phenethylamino)propyl)sulfinyl)methyl) cyclopentane-1,2-diol] | > 1000 | ≤ 10 | > 10000 |
| CNc1ncnc2c1ccn2[C@@H]1C[C@H](CN(C[C@H]2CCCNC2)c2cncs2)[C@@H](O)[C@H]1O [438 (310), (1R,2S,3R,5R)-3-[4-(Methylamino)pyrrolo[2,3-d]pyrimidin-7-yl]-5-({[(3S)-piperidin-3-ylmethyl](1,3-thiazol-5-yl)amino}methyl) cyclopentane-1,2-diol] | > 1000 | ≤ 10 | > 10000 |
| CNc1ncnc2c1ccn2[C@@H]1C[C@H](CNCC2CNCCO2)[C@@H](O)[C@H]1O (mixture of isomers) [435 (307), (1R,2S,3R,5R)-3-(4-(methylamino)-7H-pyrrolo[2,3-d]pyrimidin-7-yl)-5-(((morpholin-2-ylmethyl)amino)methyl) cyclopentane-1,2-diol and (1R,2S,3R,5S)-3-(4-(methylamino)-7H-pyrrolo[2,3-d]pyrimidin-7-yl)-5-(((morpholin-2-ylmethyl)amino)methyl) cyclopentane-1,2-diol] | > 1000 | ≤ 10 | > 10000 |
| N#Cc1cn([C@@H]2C[C@H](CNCCCNCCc3ccccc3)[C@@H](O)[C@H]2O)c2ncnc(N)c12 [483 (357), 4-Amino-7-((1R,2S,3R,4R)-2,3-dihydroxy-4-(((3-(phenethylamino)propyl)amino)methyl)cyclopentyl)-7H-pyrrolo[2,3-d]pyrimidine-5-carbonitrile] | 100 to 1000 | 10 to 15 | 1000 to 10000 |
| C=Cc1cn([C@@H]2C[C@H](CNCCCNCCc3ccccc3)[C@@H](O)[C@H]2O)c2ncncc12 [Compound 608, (1R,2S,3R,5R)-3-{5-ethenylpyrrolo[2,3-d]pyrimidin-7-yl}-5-[({3-[(2-phenylethyl)amino]propyl}amino)methyl]cyclopentane-1,2-diol] | 100 to 1000 | ≤ 10 | > 10000 |

Other lines, results leading:

| Kd [1] [nM] | ΔTm at 500 µM [2] [°C] | IC50 [3] [nM] | SMILES |
| --- | --- | --- | --- |
| 100 to 1000 | ≤ 10 | > 10000 | CCc1cn([C@@H]2C[C@H](CNCCCNCCc3ccccc3)[C@@H](O)[C@H]2O)c2ncncc12 [Compound 609, (1R,2S,3R,5R)-3-{5-ethylpyrrolo[2,3-d]pyrimidin-7-yl}-5-[({3-[(2-phenylethyl)amino]propyl}amino)methyl]cyclopentane-1,2-diol] |
| 10 to 100 | 15 to 20 | 100 to 1000 | Nc1ncnc2c1c(Br)cn2[C@@H]1C[C@H](CNCCCNCCc2ccc(F)cc2)[C@@H](O)[C@H]1O [319 (220), (1R,2S,3R,5R)-3-(4-amino-5-bromo-7H-pyrrolo[2,3-d]pyrimidin-7-yl)-5-(((3-((4-fluorophenethyl)amino)propyl)amino)methyl) cyclopentane-1,2-diol] |
| 100 to 1000 | 10 to 15 | > 10000 | CCN(CCCNCCc1ccc2ccccc2c1)C[C@H]1C[C@@H](n2ccc3c(NC)ncnc32)[C@H](O)[C@@H]1O [375 (279), (1S,2R,3R,5R)-3-((ethyl(3-((2-(naphthalen-2-yl)ethyl)amino)propyl)amino)methyl)-5-(4-(methylamino)-7H-pyrrolo[2,3-d]pyrimidin-7-yl) cyclopentane-1,2-diol] |
| 100 to 1000 | ≤ 10 | > 10000 | Nc1ncnc2c1ncn2[C@@H]1O[C@H](CNCCCNCc2ccc(OCc3ccccc3)cc2)[C@@H](O)[C@H]1O [321 (224), (2R,3R,4S,5R)-2-(6-amino-9H-purin-9-yl)-5-(((3-((4-(benzyloxy)benzyl)amino)propyl)amino)methyl)tetrahydrofuran-3 4-diol] |
| 10 to 100 | 15 to 20 | 100 to 1000 | Nc1ncnc2c1c(-c1ccn[nH]1)cn2[C@@H]1C[C@H](CNCCCNCCc2ccccc2)[C@@H](O)[C@H]1O [472 (346), (1R,2S,3R,5R)-3-(4-Amino-5-(1H-pyrazol-5-yl)-7H-pyrrolo[2,3-d]pyrimidin-7-yl)-5-(((3-(phenethylamino)propyl)amino)methyl) cyclopentane-1,2-diol] |
| 10 to 100 | 15 to 20 | 100 to 1000 | Nc1ncnc2c1c(-c1ncc[nH]1)cn2[C@@H]1C[C@H](CNCCCNCCc2ccccc2)[C@@H](O)[C@H]1O [473 (347), (1R,2S,3R,5R)-3-(4-Amino-5-(1H-imidazol-2-yl)-7H-pyrrolo[2,3-d]pyrimidin-7-yl)-5-(((3-(phenethylamino)propyl)amino)methyl) cyclopentane-1,2-diol] |
| 100 to 1000 | 15 to 20 | 100 to 1000 | Cn1ccc(-c2cn([C@@H]3C[C@H](CNCCCNCCc4ccccc4)[C@@H](O)[C@H]3O)c3ncnc(N)c23)n1 [476 (350), (1R,2S,3R,5R)-3-(4-Amino-5-(1-methyl-1H-pyrazol-3-yl)-7H-pyrrolo[2,3-d]pyrimidin-7-yl)-5-(((3-(phenethylamino)propyl)amino)methyl) cyclopentane-1,2-diol] |
| 100 to 1000 | 10 to 15 | 1000 to 10000 | CNc1ncnc2c1ccn2[C@@H]1C[C@H](CN(CCCNCCc2cccc(Oc3ccccc3)c2)C(C)C)[C@@H](O)[C@H]1O [362 (266), (1S,2R,3R,5R)-3-((isopropyl(3-((3-phenoxyphenethyl)amino)propyl)amino)methyl)-5-(4-(methylamino)-7H-pyrrolo[2,3-d]pyrimidin-7-yl) cyclopentane-1,2-diol] |
| 100 to 1000 | 10 to 15 | 1000 to 10000 | CNc1ncnc2c1ccn2[C@@H]1C[C@H](C(=O)NCCCNCc2cccc(Oc3ccccc3)c2)[C@@H](O)[C@H]1O [353 (257), (1S,2R,3S,4R)-2,3-dihydroxy-4-(4-(methylamino)-7H-pyrrolo[2,3-d]pyrimidin-7-yl)-N-(3-((3-phenoxybenzyl)amino)propyl) cyclopentane-1-carboxamide] |
| 10 to 100 | 15 to 20 | 1000 to 10000 | Nc1ncnc2c1c(-c1nccs1)cn2[C@@H]1C[C@H](C2CCNCC2)[C@@H](O)[C@H]1O [487 (360)] |
